According to US10251395B2, “Substituted furano-/thienocycloalkylamino-2-pyrimidine derivatives and use thereof for controlling undesired plant growth” (Bayer CropScience Aktiengesellschaft, priority 2015, dated 2019):

How the values were obtained:
[1] = tested on: Veronica persica; assay: Post-emergence herbicidal effect; assay type: in vivo; conditions: 320 g/ha, assessed visually after about 3 weeks vs untreated controls
In short: (§1)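 Greenhouse weeds grown in sandy loam were sprayed at the one-leaf stage, 2–3 weeks after sowing, with WP or EC formulations in 600–800 L/ha water plus 0.2% wetting agent. Damage was scored visually after about 3 weeks as percent activity relative to untreated controls, where 100% means the plants died.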

[2] = tested on: Setaria viridis; assay: Post-emergence herbicidal effect; assay type: in vivo; conditions: assessed visually after about 3 weeks vs untreated controls
In short: as §1

[3] = tested on: Stellaria media; assay: Post-emergence herbicidal effect; assay type: in vivo; conditions: assessed visually after about 3 weeks vs untreated controls
In short: as §1

[4] = tested on: Polygonum convolvulus; assay: Post-emergence herbicidal effect; assay type: in vivo; conditions: assessed visually after about 3 weeks vs untreated controls
In short: as §1

[5] = tested on: Alopecurus myosuroides; assay: Post-emergence herbicidal effect; assay type: in vivo; conditions: 320 g/ha, assessed visually after about 3 weeks vs untreated controls
In short: as §1

[6] = tested on: Amaranthus retroflexus; assay: Post-emergence herbicidal effect; assay type: in vivo; conditions: assessed visually after about 3 weeks vs untreated controls
In short: as §1

[7] = tested on: Ipomoea purpurea; assay: Post-emergence herbicidal effect; assay type: in vivo; conditions: assessed visually after about 3 weeks vs untreated controls
In short: as §1

[8] = tested on: Matricaria inodora; assay: Post-emergence herbicidal effect; assay type: in vivo; conditions: assessed visually after about 3 weeks vs untreated controls
In short: as §1

[9] = tested on: Avena fatua; assay: Post-emergence herbicidal effect; assay type: in vivo; conditions: 320 g/ha, assessed visually after about 3 weeks vs untreated controls
In short: as §1

[10] = tested on: Viola tricolor; assay: Post-emergence herbicidal effect; assay type: in vivo; conditions: assessed visually after about 3 weeks vs untreated controls
In short: as §1

[11] = tested on: Echinochloa crus-galli; assay: Post-emergence herbicidal effect; assay type: in vivo; conditions: assessed visually after about 3 weeks vs untreated controls
In short: as §1

[12] = tested on: Abutilon theophrasti; assay: Post-emergence herbicidal effect; assay type: in vivo; conditions: assessed visually after about 3 weeks vs untreated controls
In short: as §1

[13] = tested on: Lolium multiflorum; assay: Post-emergence herbicidal effect; assay type: in vivo; conditions: assessed visually after about 3 weeks vs untreated controls
In short: as §1

[14] = tested on: Veronica persica; assay: Pre-emergence herbicidal effect; assay type: in vivo; conditions: scored visually after 3 weeks
In short: (§2)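 Seeds sown in sandy loam and covered with soil; WP or EC formulations sprayed onto the soil surface as aqueous suspension/emulsion at 600 to 800 L/ha water with 0.2% wetting agent. Greenhouse-grown; damage scored visually after 3 weeks against untreated controls (100% = plants dead, 0% = like control).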

[15] = tested on: Setaria viridis; assay: Pre-emergence herbicidal effect; assay type: in vivo; conditions: scored visually after 3 weeks
In short: as §2

[16] = tested on: Stellaria media; assay: Pre-emergence herbicidal effect; assay type: in vivo; conditions: scored visually after 3 weeks
In short: as §2

[17] = tested on: Polygonum convolvulus; assay: Pre-emergence herbicidal effect; assay type: in vivo; conditions: scored visually after 3 weeks
In short: as §2

[18] = tested on: Alopecurus myosuroides; assay: Pre-emergence herbicidal effect; assay type: in vivo; conditions: scored visually after 3 weeks
In short: as §2

[19] = tested on: Amaranthus retroflexus; assay: Pre-emergence herbicidal effect; assay type: in vivo; conditions: scored visually after 3 weeks
In short: as §2

[20] = tested on: Matricaria inodora; assay: Pre-emergence herbicidal effect; assay type: in vivo; conditions: scored visually after 3 weeks
In short: as §2

[21] = tested on: Avena fatua; assay: Pre-emergence herbicidal effect; assay type: in vivo; conditions: Dosage 320 g/ha, scored visually after 3 weeks
In short: as §2

[22] = tested on: Viola tricolor; assay: Pre-emergence herbicidal effect; assay type: in vivo; conditions: scored visually after 3 weeks
In short: as §2

[23] = tested on: Cyperus esculentus; assay: Pre-emergence herbicidal effect; assay type: in vivo; conditions: Dosage 320 g/ha, scored visually after 3 weeks
In short: as §2

[24] = tested on: Echinochloa crus-galli; assay: Pre-emergence herbicidal effect; assay type: in vivo; conditions: scored visually after 3 weeks
In short: as §2

[25] = tested on: Abutilon theophrasti; assay: Pre-emergence herbicidal effect; assay type: in vivo; conditions: scored visually after 3 weeks
In short: as §2

[26] = tested on: Lolium multiflorum; assay: Pre-emergence herbicidal effect; assay type: in vivo; conditions: scored visually after 3 weeks
In short: as §2

[27] = logP (HCOOH); assay type: physicochemical; conditions: HCOOH
Description: Table 2 (physicochemical characterization of selected synthesis examples)

Cc1cc2c(s1)CCC[C@H]2Nc1ncc(I)c(N)n1 [compound 173]
post-emergence efficacy VERPE [1]: 100%
post-emergence efficacy SETVI ([2]; 80 g/ha): 80%
post-emergence efficacy SETVI ([2]; 320 g/ha): 90%
post-emergence efficacy STEME ([3]; 80 g/ha): 100%
post-emergence efficacy STEME ([3]; 320 g/ha): 100%
post-emergence efficacy POLCO ([4]; 320 g/ha): 60%
post-emergence efficacy ALOMY [5]: 100%
post-emergence efficacy AMARE ([6]; 80 g/ha): 90%
post-emergence efficacy AMARE ([6]; 320 g/ha): 90%
post-emergence efficacy PHBPU ([7]; 80 g/ha): 90%
post-emergence efficacy PHBPU ([7]; 320 g/ha): 100%
post-emergence efficacy MATIN ([8]; 80 g/ha): 60%
post-emergence efficacy MATIN ([8]; 320 g/ha): 90%
post-emergence efficacy AVEFA [9]: 90%
post-emergence efficacy VIOTR ([10]; 80 g/ha): 90%
post-emergence efficacy VIOTR ([10]; 320 g/ha): 90%
post-emergence efficacy ECHCG ([11]; 80 g/ha): 100%
post-emergence efficacy ECHCG ([11]; 320 g/ha): 100%
post-emergence efficacy ABUTH ([12]; 80 g/ha): 80%
post-emergence efficacy ABUTH ([12]; 320 g/ha): 90%
post-emergence efficacy LOLMU ([13]; 80 g/ha): 60%
post-emergence efficacy LOLMU ([13]; 320 g/ha): 90%
VERPE pre-emergence efficacy (herbicidal activity) ([14]; Dosage 80 g/ha): 90%
VERPE pre-emergence efficacy (herbicidal activity) ([14]; Dosage 320 g/ha): 100%
SETVI pre-emergence efficacy (herbicidal activity) ([15]; Dosage 80 g/ha): 90%
SETVI pre-emergence efficacy (herbicidal activity) ([15]; Dosage 320 g/ha): 100%
STEME pre-emergence efficacy (herbicidal activity) ([16]; Dosage 80 g/ha): 100%
STEME pre-emergence efficacy (herbicidal activity) ([16]; Dosage 320 g/ha): 100%
POLCO pre-emergence efficacy (herbicidal activity) ([17]; Dosage 80 g/ha): 90%
POLCO pre-emergence efficacy (herbicidal activity) ([17]; Dosage 320 g/ha): 100%
ALOMY pre-emergence efficacy (herbicidal activity) ([18]; Dosage 80 g/ha): 60%
ALOMY pre-emergence efficacy (herbicidal activity) ([18]; Dosage 320 g/ha): 80%
AMARE pre-emergence efficacy (herbicidal activity) ([19]; Dosage 80 g/ha): 100%
AMARE pre-emergence efficacy (herbicidal activity) ([19]; Dosage 320 g/ha): 100%
MATIN pre-emergence efficacy (herbicidal activity) ([20]; Dosage 80 g/ha): 100%
MATIN pre-emergence efficacy (herbicidal activity) ([20]; Dosage 320 g/ha): 100%
AVEFA pre-emergence efficacy (herbicidal activity) [21]: 60%
VIOTR pre-emergence efficacy (herbicidal activity) ([22]; Dosage 80 g/ha): 100%
VIOTR pre-emergence efficacy (herbicidal activity) ([22]; Dosage 320 g/ha): 100%
CYPES pre-emergence efficacy (herbicidal activity) [23]: 60%
ECHCG pre-emergence efficacy (herbicidal activity) ([24]; Dosage 80 g/ha): 100%
ECHCG pre-emergence efficacy (herbicidal activity) ([24]; Dosage 320 g/ha): 100%
ABUTH pre-emergence efficacy (herbicidal activity) ([25]; Dosage 320 g/ha): 100%
LOLMU pre-emergence efficacy (herbicidal activity) ([26]; Dosage 80 g/ha): 60%
LOLMU pre-emergence efficacy (herbicidal activity) ([26]; Dosage 320 g/ha): 100%

Cc1cc2c(s1)CC(C)C2Nc1ncc(S(C)(=O)=O)c(N)n1 (racemic) [compound 17]
logP (HCOOH) [27]: oily; logP (HCOOH): 2.11; 1H NMR (CDCl3, 400 MHZ, δ in ppm): 1.30 (d, 3H, 3H of
post-emergence efficacy VERPE [1]: 100%
post-emergence efficacy SETVI ([2]; 320 g/ha): 100%
post-emergence efficacy STEME ([3]; 320 g/ha): 100%
post-emergence efficacy POLCO ([4]; 80 g/ha): 80%
post-emergence efficacy POLCO ([4]; 320 g/ha): 80%
post-emergence efficacy ALOMY [5]: 90%
post-emergence efficacy AMARE ([6]; 320 g/ha): 100%
post-emergence efficacy PHBPU ([7]; 320 g/ha): 0%
post-emergence efficacy MATIN ([8]; 320 g/ha): 80%
post-emergence efficacy AVEFA [9]: 100%
post-emergence efficacy VIOTR ([10]; 320 g/ha): 90%
post-emergence efficacy ECHCG ([11]; 80 g/ha): 80%
post-emergence efficacy ECHCG ([11]; 320 g/ha): 100%
post-emergence efficacy ABUTH ([12]; 320 g/ha): 100%
post-emergence efficacy LOLMU ([13]; 80 g/ha): 90%
post-emergence efficacy LOLMU ([13]; 320 g/ha): 100%
VERPE pre-emergence efficacy (herbicidal activity) ([14]; Dosage 80 g/ha): 100%
VERPE pre-emergence efficacy (herbicidal activity) ([14]; Dosage 320 g/ha): 100%
SETVI pre-emergence efficacy (herbicidal activity) ([15]; Dosage 80 g/ha): 60%
SETVI pre-emergence efficacy (herbicidal activity) ([15]; Dosage 320 g/ha): 100%
STEME pre-emergence efficacy (herbicidal activity) ([16]; Dosage 80 g/ha): 100%
STEME pre-emergence efficacy (herbicidal activity) ([16]; Dosage 320 g/ha): 100%
POLCO pre-emergence efficacy (herbicidal activity) ([17]; Dosage 320 g/ha): 100%
ALOMY pre-emergence efficacy (herbicidal activity) ([18]; Dosage 320 g/ha): 100%
AMARE pre-emergence efficacy (herbicidal activity) ([19]; Dosage 80 g/ha): 100%
AMARE pre-emergence efficacy (herbicidal activity) ([19]; Dosage 320 g/ha): 100%
MATIN pre-emergence efficacy (herbicidal activity) ([20]; Dosage 80 g/ha): 100%
MATIN pre-emergence efficacy (herbicidal activity) ([20]; Dosage 320 g/ha): 100%
VIOTR pre-emergence efficacy (herbicidal activity) ([22]; Dosage 80 g/ha): 100%
VIOTR pre-emergence efficacy (herbicidal activity) ([22]; Dosage 320 g/ha): 100%
ECHCG pre-emergence efficacy (herbicidal activity) ([24]; Dosage 80 g/ha): 100%
ECHCG pre-emergence efficacy (herbicidal activity) ([24]; Dosage 320 g/ha): 100%
ABUTH pre-emergence efficacy (herbicidal activity) ([25]; Dosage 80 g/ha): 80%
ABUTH pre-emergence efficacy (herbicidal activity) ([25]; Dosage 320 g/ha): 100%
